Numbers after ± are expanded uncertainties.
What was measured:
[1] = 85 kPa, Liquid, Capillary tube (Ostwald / Ubbelohde) method
[2] = mn = molality of the nth substance listed, in mol/kg; details: 85 kPa, Liquid, m2 = 0; for viscosity: Capillary tube (Ostwald / Ubbelohde) method

Row | SMILES | viscosity ([1]; 288.15 K) | viscosity ([1]; 298.15 K) | viscosity ([1]; 308.15 K) | viscosity ([1]; 318.15 K) | viscosity ([2]; 288.15 K) | viscosity ([2]; 298.15 K) | viscosity ([2]; 308.15 K) | viscosity ([2]; 318.15 K) | mass density ([2]; 298.15 K, Vibrating tube method)
1 | O [water] | 1.259 ± 0.12 mPa·s | 0.995 ± 0.12 mPa·s | 0.819 ± 0.12 mPa·s | 0.686 ± 0.12 mPa·s | – | – | – | – | –
2 | O [water] + C[N+](C)(C)CCO.O=C([O-])[C@@H]1CCCN1 | – | – | – | – | 1.259 ± 0.12 mPa·s | 0.995 ± 0.12 mPa·s | 0.819 ± 0.12 mPa·s | 0.686 ± 0.12 mPa·s | –
3 | O [water] + C[N+](C)(C)CCO.NCC(=O)[O-] | – | – | – | – | 1.259 ± 0.12 mPa·s | 0.995 ± 0.12 mPa·s | 0.819 ± 0.12 mPa·s | 0.686 ± 0.12 mPa·s | 997.38 ± 0.43 kg/m3

Reference: the NIST ThermoML archive (doi:10.1021/acs.jced.8b00879)
